Experimental data: PMC5951806, “Rapid labelling and covalent inhibition of intracellular native proteins using ligand-directed N-acyl-N-alkyl sulfonamide” (Nature Communications, 2018)

How the values were obtained:
Assay in all cases: TMT LC-MSMS of 11-labelled proteins
Format in all cases: cell-based
[1] = target: Tubulin beta-4B chain (TUBB4B) (Homo sapiens, UniProt P68371)
Text: (§1) The labelled proteins were enriched by immunoprecipitation with an anti-fluorescein antibody and tryptically digested in gel. Digested peptides were modified with Light- (L-), Medium- (M-), or Heavy- (H-) TMT reagent for samples treated with 11, 11 with PU-H71 (as competitive condition), or DMSO (vehicle), respectively, and mixed in a 1:1:1 ratio for LC-MSMS analysis. We performed three experimental replicates, in which proteins detected and quantified at least twice were selected as identified proteins. According to the related approach of Cravatt et al[44], the proteins having L/H (11/DMSO) ratios >5 were defined as 11-labelled proteins. […] On the basis of these criteria, we identified 6 proteins that react with 11, including three ligand-specific targets (Hsp90α (HSP90AA1), Hsp90β (HSP90AB1), and Grp94 (HSP90B1)) and three off-targets (Trifunctional enzyme subunit α (HADHA), Tubulin-α (TUBA1B), and ADP/ATP translocase 3 (SLC25A6)) (Fig. 5d, e and Supplementary Data 1). […] Grp94, a HSP90 isomer, was previously reported to be a PU-H71 specific target. TRAP-1, another Hsp90 isomer that can bind PU-H71, on the other hand, was not identified as 11-target by our criteria.
(§2) SKBR3 human breast cancer cells (2.0 × 10^6 cells) were seeded on a 10 cm dish and cultured for 3 days in McCoy’s 5A in a 5% CO2 humidified chamber at 37 °C. […] As competitive experiments, the labelling was conducted in the presence of PU-H71 (10 µM). After labelling, the cells were washed twice with PBS, and lysed with RIPA buffer. […] The supernatant was mixed with chilled acetone and incubated overnight at −80 °C. The protein precipitates were solubilized by sonication in 1 mL of RIPA buffer containing 1% SDS, and then 10-fold diluted with RIPA buffer to reduce SDS concentration to c.a. 0.1%. The protein solution (containing 1 mg of protein) was mixed with Protein G Sepharose 4 Fast Flow (GE Healthcare) and rotated at 4 °C for 1 h. After removal of the beads, the remaining supernatant was mixed with anti-fluorescein antibody (Abcam, ab19491, 7:10000) and rotated at 4 °C for 1 h, followed by addition of fresh Protein G Sepharose 4 Fast Flow and further incubation at 4 °C for 4 h. The beads were washed five times with RIPA buffer and once with PBS. Proteins were eluted from the beads by addition of 2 × sample buffer containing 100 mM DTT and boiling at 95 °C for 5 min. The samples were subjected to a 7.5% SDS–PAGE gel (Mini-PROTEAN TGX Gels, BioRad), and electrophoresed as the migration distance of dye front is about 10 mm. Each lane was excised (height, 10 mm), and treated with a 47.5% methanol / 47.5% pure water / 5% acetic acid for 20 min, a 50% methanol / 50% pure water for 10 min, and in pure water for 10 min. The gel pieces were dehydrated with 100% acetonitrile, and then swelled with 200 μL of 100 mM TEAB (triethylamine bicarbonate) buffer containing 10 mM DTT and heated at 56 °C for 30 min. The solutions were replaced with 200 µL of 100 mM TEAB buffer containing 55 mM iodoacetamide and incubated for 45 min in the dark. The gel pieces were washed with 100 mM TEAB buffer and dehydrated in acetonitrile. This step was repeated once. The gels were reswelled in 100 mM TEAB buffer containing 10 ng/μL Sequencing Grade Trypsin (Promega) and incubated overnight at 37 °C. To the gels, 50 μL of an extraction solution (50% acetonitrile, 0.1% TFA) was added. After 10 min incubation, the supernatants were collected to new tubes, and this process was repeated twice. Extracted peptides were dried in vacuo and reconstituted with 25 μL of 100 mM TEAB buffer.

[2] = target: Isoform 3 of L-lactate dehydrogenase A chain (LDHA) (Homo sapiens, UniProt P00338)
Text: as §1, §2

[3] = target: T-complex protein 1 subunit theta (CCT8) (Homo sapiens, UniProt P50990); conditions: sheet Exp1, SKBR3 cells
Text: as §1, §2

[4] = target: T1, ADP/ATP translocase 3 (SLC25A6) (Homo sapiens, UniProt P12236)
T1 sequence (P12236 1-298): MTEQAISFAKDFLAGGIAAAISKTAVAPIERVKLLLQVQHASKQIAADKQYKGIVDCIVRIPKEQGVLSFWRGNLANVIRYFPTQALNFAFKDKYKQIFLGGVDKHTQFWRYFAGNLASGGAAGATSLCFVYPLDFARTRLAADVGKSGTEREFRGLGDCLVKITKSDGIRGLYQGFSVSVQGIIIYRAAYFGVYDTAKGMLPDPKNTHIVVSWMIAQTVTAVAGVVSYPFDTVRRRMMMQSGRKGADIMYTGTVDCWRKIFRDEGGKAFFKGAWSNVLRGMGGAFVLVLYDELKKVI
Text: as §1, §2

[5] = target: Protein disulfide-isomerase (P4HB) (Homo sapiens, UniProt P07237)
Text: as §1, §2

[6] = sheet Exp1, SKBR3 cells, 11 0.5 µM 3 h vs DMSO
[7] = sheet Exp1, SKBR3 cells, 11 0.5 µM 3 h vs with PU-H71 10 µM
[8] = sheet Merged, SKBR3 cells, 11 0.5 µM 3 h vs DMSO
[9] = sheet Merged, SKBR3 cells, 11 0.5 µM 3 h vs with PU-H71 10 µM

Sequence of Tubulin beta-4B chain (TUBB4B) (P68371 whole entry): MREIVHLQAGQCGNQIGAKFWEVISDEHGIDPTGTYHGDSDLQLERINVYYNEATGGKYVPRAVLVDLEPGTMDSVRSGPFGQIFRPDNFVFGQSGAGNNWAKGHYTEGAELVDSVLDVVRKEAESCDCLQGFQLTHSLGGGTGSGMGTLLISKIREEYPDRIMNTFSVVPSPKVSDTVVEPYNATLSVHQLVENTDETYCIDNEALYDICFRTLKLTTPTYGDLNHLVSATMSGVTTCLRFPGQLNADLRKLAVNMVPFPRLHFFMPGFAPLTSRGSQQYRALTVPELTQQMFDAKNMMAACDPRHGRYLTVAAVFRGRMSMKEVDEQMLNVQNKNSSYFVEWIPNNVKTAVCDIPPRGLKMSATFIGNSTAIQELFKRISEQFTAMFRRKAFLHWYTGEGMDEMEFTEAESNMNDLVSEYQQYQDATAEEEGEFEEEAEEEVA
Sequence of Tubulin beta-4B chain (TUBB4B) (P68363 whole entry partner): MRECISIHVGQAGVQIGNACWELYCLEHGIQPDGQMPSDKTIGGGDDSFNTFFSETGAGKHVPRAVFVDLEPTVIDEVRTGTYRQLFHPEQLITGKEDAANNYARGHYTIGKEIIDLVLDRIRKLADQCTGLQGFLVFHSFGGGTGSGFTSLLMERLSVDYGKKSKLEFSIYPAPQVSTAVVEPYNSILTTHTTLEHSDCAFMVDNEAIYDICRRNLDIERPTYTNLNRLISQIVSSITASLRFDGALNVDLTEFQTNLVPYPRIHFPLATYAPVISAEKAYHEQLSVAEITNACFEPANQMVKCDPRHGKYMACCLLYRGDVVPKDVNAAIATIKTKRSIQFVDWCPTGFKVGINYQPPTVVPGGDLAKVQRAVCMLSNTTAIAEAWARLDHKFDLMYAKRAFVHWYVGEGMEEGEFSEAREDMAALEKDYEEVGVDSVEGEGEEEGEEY
Sequence of Protein disulfide-isomerase (P4HB) (P07237 18-508): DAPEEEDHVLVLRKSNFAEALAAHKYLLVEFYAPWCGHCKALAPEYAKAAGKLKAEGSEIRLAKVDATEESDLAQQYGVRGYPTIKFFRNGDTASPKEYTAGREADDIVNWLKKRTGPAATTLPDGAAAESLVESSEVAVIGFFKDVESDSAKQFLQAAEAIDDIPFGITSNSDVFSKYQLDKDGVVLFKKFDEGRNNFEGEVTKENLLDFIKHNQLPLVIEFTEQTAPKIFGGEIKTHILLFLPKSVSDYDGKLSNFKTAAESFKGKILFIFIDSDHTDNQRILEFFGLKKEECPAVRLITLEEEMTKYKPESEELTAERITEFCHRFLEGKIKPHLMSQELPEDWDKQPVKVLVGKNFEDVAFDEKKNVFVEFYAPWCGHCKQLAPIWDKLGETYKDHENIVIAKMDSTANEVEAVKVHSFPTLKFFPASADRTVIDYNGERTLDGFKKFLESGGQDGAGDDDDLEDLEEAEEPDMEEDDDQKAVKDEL

- Abundance Ratio: (11) / (11 with PU-H71) ([1]; Exp3, TUBB4B): 1.068
- Abundance Ratio: (11) / (DMSO) ([1]; Exp3, TUBB4B): 3.456
- Abundances (Grouped): 11 ([1]; Exp3, TUBB4B): 287.5
- Abundances (Grouped): 11 with PU-H71 ([1]; Exp3, TUBB4B): 269.1
- Abundance Ratio: (11) / (DMSO) [1, 6]: 3.652
- Abundance Ratio: (11) / (11 with PU-H71) [1, 7]: 1.046
- Abundance Ratio: (11) / (11 with PU-H71) ([1]; sheet Exp2, TUBB4B): 0.891
- Abundance Ratio: (11) / (DMSO) ([1]; sheet Exp2, TUBB4B): 2.612
- Abundances (Grouped): 11 ([1]; sheet Exp2, TUBB4B): 209.5
- Abundances (Grouped): 11 with PU-H71 ([1]; sheet Exp2, TUBB4B): 235
- Abundance Ratio: (11) / (DMSO) [1, 8]: 3.477
- Abundance Ratio: (11) / (11 with PU-H71) [1, 9]: 1.054
- Abundance Ratio: (11) / (11 with PU-H71) ([2]; Exp3, LDHA): 0.709
- Abundance Ratio: (11) / (DMSO) ([2]; Exp3, LDHA): 4.426
- Abundances (Grouped): 11 ([2]; Exp3, LDHA): 517.9
- Abundances (Grouped): 11 with PU-H71 ([2]; Exp3, LDHA): 730.3
- Abundance Ratio: (11) / (DMSO) [2, 6]: 4.186
- Abundance Ratio: (11) / (11 with PU-H71) [2, 7]: 0.705
- Abundance Ratio: (11) / (11 with PU-H71) ([2]; sheet Exp2, LDHA): 0.702
- Abundance Ratio: (11) / (DMSO) ([2]; sheet Exp2, LDHA): 3.79
- Abundances (Grouped): 11 ([2]; sheet Exp2, LDHA): 554.9
- Abundances (Grouped): 11 with PU-H71 ([2]; sheet Exp2, LDHA): 790.3
- Abundance Ratio: (11) / (DMSO) [2, 8]: 4.186
- Abundance Ratio: (11) / (11 with PU-H71) [2, 9]: 0.705
- Abundance Ratio: (11) / (DMSO) ([3]; 11 0.5 µM 3 h vs DMSO): 2.74
- Abundance Ratio: (11) / (11 with PU-H71) ([3]; 11 0.5 µM 3 h vs with PU-H71 10 µM): 0.821
- Abundance Ratio: (11) / (11 with PU-H71) ([4]; Exp3, SLC25A6): 0.576
- Abundance Ratio: (11) / (DMSO) ([4]; Exp3, SLC25A6): 5.78
- Abundances (Grouped): 11 ([4]; Exp3, SLC25A6): 626.5
- Abundances (Grouped): 11 with PU-H71 ([4]; Exp3, SLC25A6): 1087.4
- Abundance Ratio: (11) / (DMSO) [4, 6]: 5.287
- Abundance Ratio: (11) / (11 with PU-H71) [4, 7]: 0.613
- Abundance Ratio: (11) / (11 with PU-H71) ([4]; sheet Exp2, SLC25A6): 0.601
- Abundance Ratio: (11) / (DMSO) ([4]; sheet Exp2, SLC25A6): 6.595
- Abundances (Grouped): 11 ([4]; sheet Exp2, SLC25A6): 579
- Abundances (Grouped): 11 with PU-H71 ([4]; sheet Exp2, SLC25A6): 963.9
- Abundance Ratio: (11) / (DMSO) [4, 8]: 5.939
- Abundance Ratio: (11) / (11 with PU-H71) [4, 9]: 0.586
- Abundance Ratio: (11) / (11 with PU-H71) ([5]; Exp3, P4HB): 0.934
- Abundance Ratio: (11) / (DMSO) ([5]; Exp3, P4HB): 3.442
- Abundances (Grouped): 11 ([5]; Exp3, P4HB): 191.7
- Abundances (Grouped): 11 with PU-H71 ([5]; Exp3, P4HB): 205.3
- Abundance Ratio: (11) / (DMSO) [5, 6]: 2.885
- Abundance Ratio: (11) / (11 with PU-H71) [5, 7]: 0.887
- Abundance Ratio: (11) / (11 with PU-H71) ([5]; sheet Exp2, P4HB): 0.87
- Abundance Ratio: (11) / (DMSO) ([5]; sheet Exp2, P4HB): 2.206
- Abundances (Grouped): 11 ([5]; sheet Exp2, P4HB): 186
- Abundances (Grouped): 11 with PU-H71 ([5]; sheet Exp2, P4HB): 213.9
- Abundance Ratio: (11) / (DMSO) [5, 8]: 2.274
- Abundance Ratio: (11) / (11 with PU-H71) [5, 9]: 0.896
SMILES: CC(=O)Oc1ccc2c(c1)Oc1cc(OC(C)=O)ccc1C21OC(=O)c2cc(C(=O)NCCOCCOCCNC(=O)CCCC(=O)N(CC#N)S(=O)(=O)c3ccc(C(=O)NCCCn4c(Sc5cc6c(cc5I)OCO6)nc5c(N)ncnc54)cc3)ccc21 [compound 11]
